What was measured:
[1] = system: THX, Lox, MOLT4, and MOLT4/C; experiment: Protection by dipyridamole from cell killing in vitro (FIG. 4); assay type: cell-based; conditions: four cell lines
Source text: The number on the Y axis is the fold protection by dipyridamole from administration of gemcitabine and gemcitabine-5′-elaidate.

WiDr-LF cell line = experiment: Combination with pemetrexed under low folate conditions (WiDr-LF); assay type: cell-based, human; conditions: MTT assay
Protocol: (§1) The cell lines A549 human NSCLC and WiDr human colon carcinoma are used to determine the combination index and also the effect of Gemcitabine-5′-elaidate on the cell cycle. A sulforhodamine B colorimetric assay is used to determine growth inhibition after 72 hours. Pemetrexed combinations are tested using the MTT assay. Combinations with pemetrexed are also tested in the WiDr-LF cell line, which are WiDr cells cultured under low folate conditions. The IC25 and IC50 values (inhibitory concentrations at 25% or 50%, respectively) are calculated. The IC25 value is used for combinations with serial dilutions of oxaliplatin or docetaxel, and the IC50 value is used for pemetrexed combinations. Median effect analysis is performed.

[2] = system: WiDr human colon carcinoma; experiment: Combination study in vitro, growth inhibition, median effect analysis (WiDr); assay type: cell-based
Protocol: as §1

WiDr cell line [3] = experiment: Platinum accumulation in DNA (WiDr); assay type: cell-based, human; conditions: oxaliplatin 200 μM combined with Gemcitabine-5′-elaidate 0.004 μM
Protocol: The effect on DNA platinum accumulation in DNA after exposure to oxaliplatin and oxaliplatin combined with Gemcitabine-5′-elaidate (oxaliplatin [200 μM] combined with Gemcitabine-5′-elaidate [0.004 μM]) is also determined.

A549 cell line = experiment: Cell cycle analysis, flow cytometry with propidium iodide (A549); assay type: cell-based, human
Protocol: (§2) The effect on cell cycle is determined after 72 h exposure using flow cytometry combined with propidium iodide staining For cell cycle analysis, the concentration range is from 0.0005 μM to 0.05 μM in the A549 cell line and from 0.001 μM to 0.1 μM in the WiDr cell line. […] The effect on cell cycle is obtained also for the combinations with pemetrexed.

[4] = system: Co-26 murine colon cancer cells; experiment: Antitumor effect in Co-26 liver metastasis model; assay type: in vivo; conditions: single dose 75 mg/kg
Protocol: Antitumor effect of single dose of gemcitabine-5′-elaidic acid ester or gemcitabine is tested in Balb/C female mice injected with Co-26 murine colon cancer cells in the spleen (a liver metastasis model). […] The activity of gemcitabine is similar.

CEM cells = experiment: Intracellular dFdCTP level in CEM cells with or without dipyridamole (HPLC); assay type: cell-based, human
Protocol: hENT1 can inhibited in vitro by various agents including dipyridamole, NBMPR, and NBI. In order to test whether gemcitabine-5′-elaidate entry into the cells is independent of a nucleoside transporter such as hENT1, dipyridamole is used to block hENT1. The intracellular level of dFdCTP is determined in CEM cells after 60 minutes exposure to either dFdC or gemcitabine-5′-elaidate, with or without the addition of dipyridamole (DP). The compounds are administered at 10 μM, and the triphosphates are determined using HPLC. Deamination is blocked using tetrahydrouridine.

pancreatic cancer = experiment: Treatment of a pancreatic cancer patient with low hENT1 expression; assay type: in vivo, human
Protocol: An individual is diagnosed with pancreatic cancer. The patient provides a sample. The sample contains cancerous cells from the patient. The sample comes from a biopsy of the tumor, from circulating tumor cells, or from another source.
The sample is tested to determine the level of expression of hENT1 or another nucleoside transporter. The level is detected by immunohistochemistry, by determining the amount of mRNA relevant to hENT1 in the sample, or by other known means.
The testing of the sample takes place at a testing facility. The physician or their staff ships the sample to this facility. The sample is fixed or frozen for shipment. The sample is mixed with an antibody prior to shipment and analyzed when it arrives at the facility or the sample is shipped with no antibody added prior to shipment.
The nucleoside transporter level is compared to a control. The control is non-cancerous cells from the patient or is samples from another population. The control samples are analyzed at the same time as the sample or the analysis is based upon computer stored data where the comparison is done by using a rule based upon previously collected and characterized control data. This comparison allows for the classification of the sample as a “high,” “low,” or “normal,” sample based upon nucleoside transporter levels. […]

WiDr cell line [5] = experiment: Cell cycle analysis, flow cytometry with propidium iodide (WiDr); assay type: cell-based, human
Protocol: as §2

[6] = system: human colon cancer Co6044; experiment: Antitumor activity in human colon xenograft Co6044 (intraperitoneal); assay type: in vivo; conditions: intraperitoneally every third day five times
Protocol: Fragments of human colon cancers Co5776 and Co6044 are implanted subcutaneously in NCR female mice (7-8 mice/group). Gemcitabine (120 mg/kg) and gemcitabine-5′-elaidic acid ester (40 mg/kg) are administered intraperitoneally, every third day for five times.

CEM and CEM-Ara-C/8 = experiment: Tumor cell killing in vitro in CEM and hENT1-deficient CEM-Ara-C/8 (FIGS. 5A-5B); assay type: cell-based; conditions: CEM vs hENT1-deficient CEM-Ara-C/8
Source text: CEM: T-lymphoblastic leukemia cell line. CEM-Ara-C/8: Clonal derivative of CEM with hENT1 transporter deficiency.

[7] = 72 hours, sulforhodamine B assay
[8] = 72 h exposure, 0.001 μM to 0.1 μM

CCCCCCCC/C=C/CCCCCCCC(=O)OC[C@H]1O[C@@H](n2ccc(N)nc2=O)C(F)(F)[C@@H]1O [gemcitabine-5′-elaidic acid ester]
protection by dipyridamole (blocking transporters) against cell killing [1]: does not protect | antagonistic activity of combination with pemetrexed under low folate conditions (WiDr-LF cell line): slightly reduced | combination effect with docetaxel [2, 7]: antagonistic | combination effect with oxaliplatin [2, 7]: synergistic | combination effect with pemetrexed ([2]; MTT assay): Antagonistic activity | platinum adducts in DNA, oxaliplatin combined vs oxaliplatin alone (WiDr cell line [3]): increase of platinum adducts | effect on cell cycle (A549 cell line; 72 h exposure, 0.0005 μM to 0.05 μM): no effect on cell cycle | G0/G1 phase, combination with pemetrexed (A549 cell line; increased from 8.8%): 14.1% | S phase, combination with pemetrexed (A549 cell line; increased from 23.1%): 28.5% | antitumor activity ([4]; Balb/C female mice, Co-26 cells in the spleen): significant antitumor activity | hematological parameters [4]: moderate reduction | mean survival in days and Treated/Control (T/C, %) over saline control [4]: significant increase | dFdCTP levels with inhibitor (DP) compared to without inhibitor (CEM cells; 10 μM): even increased | time of maximum dFdCTP concentration (CEM cells; 10 μM, after exposure): reached at the last time point measured | dFdCTP accumulation with blocked nucleoside transporters (FIG. 3) (CEM cells; transporters blocked): accumulates in cells despite blocking transporters | response to treatment (pancreatic cancer): responds favorably | G2/M phase, combination with pemetrexed (WiDr cell line [5]): only a marginal increase | S phase accumulation (WiDr cell line [5]; [8]): S phase accumulation at the two highest concentrations | sub G1 accumulation (WiDr cell line [5]; [8]): dose dependent sub G1 accumulation | activity compared with gemcitabine ([6]; 40 mg/kg vs gemcitabine 120 mg/kg): similar | antitumor effect ([6]; NCR female mice, gemcitabine 120 mg/kg, gemcitabine-5′-elaidic acid ester 40 mg/kg): Significant antitumor effect | tumor cell killing in relation to hENT1 (CEM and CEM-Ara-C/8): kills tumor cells in vitro independent of hENT1

— US20130005678A1, “Methods and Compositions for Treating or Ameliorating Cancer Using Gemcitabine-5'-Elaidate” (CLAVIS PHARMA ASA, priority 2010, published 2013)
